# Columns and labels:
# D1 receptor = target: T1, D1 receptor (Homo sapiens, UniProt P21728); assay: Binding affinity at cloned human D1 receptor, [3H]SCH23390 (LHD1 cells)
# T1 construct: expressed in transfected cells; host or cells: LHD1 cells
# Procedure: LHD1 cells (human receptor) are grown and prepared as described for the HA7 cells as described hereafter. The final pellet is resuspended at 5 mg protein/80 ml in 50 mM Tris-HCl containing 120 mM of NaCl, 5 mM of KCl, 2 mM of CaCl2, and 1 mM of MgCl2, pH 7.4. To wells containing 100 μl of test drug or buffer and […] of [^3H]SCH 23390 (0.18 nM final conc.), is added 0.8 ml of cell homogenate (0.05 mg protein/well), and the plates are incubated at […] for 60 min. Nonspecific binding is determined with 1 μM of SCH 23390.
# D2 receptor = target: T2, D2 receptor (Homo sapiens, UniProt P14416); assay: Binding affinity at cloned human D2 receptor, [3H]YM-09151-2 (CHOp-D2 cells)
# T2 construct: expressed in transfected cells
# Procedure: (§1) CHOp-cells (human receptors) are grown to confluence in a minimum essential medium (α MEM) containing 10% fetal calf serum, 0.05% pen-strep, and 600 μg/ml of G418. The cells are scraped from the 100 by 20 mm plates and centrifuged at 500. g for 5 min. The pellet is homogenized by polytron in 50 mM Tris-HCl, pH 7.7, and centrifuged at 27,000·G for 12 min. The pellet is resuspended in 50 mM Tris, D2 at 5 mg protein/ml, D3 at 1 mg protein/ml, and stored at −70° C. in 1-ml aliquots.
# (§2) On the day of the experiment, CHOp-D2 or CHOp-D3 cells are thawed, resuspended in 50 mM Tris, and centrifuged at 27,000·G for 12 min. The pellet is then resuspended at 5 mg protein/80 ml (D2) and 1 mg protein/80 ml (D3) in 50 mM Tris containing 120 mM of NaCl, 5 mM of KCl, 1.5 mM of CaCl2, 4 mM of MgCl2, and 1 mM of EDTA, pH 7.4. […] Nonspecific binding is determined with 1 mM of chlorpromazine. The plates are incubated at 25° C. for 60 min before filtration and counted as usual. The filters are soaked in 0.1% PEI before filtering.
# 5HT1A receptor = target: T3, 5HT1A receptor (Homo sapiens, UniProt P08908); assay: Binding affinity at cloned human 5HT1A receptor, [3H]8-OH-DPAT (HA7 cells)
# T3 construct: expressed in transfected cells; host or cells: HA7 cells
# T3 sequence (P08908 1-422): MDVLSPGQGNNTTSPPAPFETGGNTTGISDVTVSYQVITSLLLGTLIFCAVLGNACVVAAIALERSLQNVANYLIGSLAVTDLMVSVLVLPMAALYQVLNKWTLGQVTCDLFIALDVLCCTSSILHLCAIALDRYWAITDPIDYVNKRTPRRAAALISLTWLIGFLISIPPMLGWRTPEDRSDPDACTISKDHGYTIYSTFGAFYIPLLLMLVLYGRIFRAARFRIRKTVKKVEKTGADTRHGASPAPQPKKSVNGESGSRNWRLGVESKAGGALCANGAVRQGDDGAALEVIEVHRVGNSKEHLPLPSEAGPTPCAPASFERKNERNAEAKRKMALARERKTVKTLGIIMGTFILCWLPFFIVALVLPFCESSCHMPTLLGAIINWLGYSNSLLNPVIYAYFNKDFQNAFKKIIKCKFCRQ
# Procedure: HA7 cells (human receptor) are grown to confluence in DMEM containing 10% fetal calf serum, 0.05% penicillin-streptomycin (pen-strep), and […] of G418. The cells are scraped from the 100 by 20 mm plates and centrifuged at 500·G for 5 min. The pellet is homogenized in 50 mM Tris-HCl, pH 7.7, with a polytron, centrifuged at 27,000·G and resuspended at 10 mg protein/ml in the same buffer. The homogenate is then stored at −70° C. in 1-ml aliquots.
# The thawed cells are washed once and resuspended at 10 mg protein/80 ml in 25 mM Tris-HCl containing 100 μM of ascorbic acid and 10 mM of nialamide at pH 7.4. The assay is performed in triplicate in a 96-well plate. To 100 μl of [^3H]8-OH-DPAT (0.5 nM final conc), […] of test compound or buffer and 0.8 ml of cell homogenate (0.1 mg protein/well) is added to each well by a Tomtec Quadra 96. Nonspecific binding is defined using 1 μM dihydroergotamine. The plates are incubated at 25° C. for 60 min, then filtered. The incubation is terminated by rapid filtration through glass fiber filter paper on a Tomtec cell harvester. The filters are washed four times with ice-cold 50 mM Tris-HCl, pH 7.7, dried overnight, bagged with 10 ml scintillation cocktail before counting for 2 min. on a Wallac Betaplate 1205 liquid scintillation counter.
# D2L receptor = target: T4, D2L receptor (Homo sapiens, UniProt P14416); assay: Inhibition constants for binding to cloned D2L receptor expressed in HEK cells, [3H]spiperone
# T4 construct: expressed in transfected cells; host or cells: HEK cells
# Procedure: Inhibition constants for binding to cloned D2L and D3 receptors expressed in HEK cells by displacing [^3H] spiperone were measured for several compounds.
# D3 receptor = D3 receptor (Homo sapiens, UniProt P35462); assay: Binding affinity at cloned human D3 receptor, [3H]YM-09151-2 (CHOp-D3 cells); set-up: expressed in transfected cells; host or cells: CHOp-D3 cells; details: for Ki: cloned human D3; for D2/D3: ratio of Ki D2 to Ki D3, [3H]YM-09151-2 protocol of Table 4
# Procedure: as §1, §2
# D4 receptor = target: T5, D4 receptor (Homo sapiens, UniProt P21917); assay: Binding affinity at cloned human D4 receptor, [3H]YM-09151-2 (CHO D4.4 cells); set-up: expressed in transfected cells; host or cells: CHO D4.4 cells; details: for Ki: cloned human D4
# T5 sequence (P21917 1-419): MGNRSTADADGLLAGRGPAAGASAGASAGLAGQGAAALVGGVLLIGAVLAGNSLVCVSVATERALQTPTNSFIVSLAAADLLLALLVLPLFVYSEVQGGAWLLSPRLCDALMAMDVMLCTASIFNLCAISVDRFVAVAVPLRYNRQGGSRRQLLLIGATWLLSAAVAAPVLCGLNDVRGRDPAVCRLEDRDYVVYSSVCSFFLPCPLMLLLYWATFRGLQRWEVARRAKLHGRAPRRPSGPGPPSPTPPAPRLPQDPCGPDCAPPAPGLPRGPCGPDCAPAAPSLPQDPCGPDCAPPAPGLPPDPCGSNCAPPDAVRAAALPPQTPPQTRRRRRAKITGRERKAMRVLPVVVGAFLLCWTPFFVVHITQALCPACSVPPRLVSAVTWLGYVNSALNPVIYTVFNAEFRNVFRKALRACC
# Procedure: CHO D4.4 cells (human receptors) are grown to confluence in D4 Puromycin medium containing 2 μg/ml puromycin, 5% fetal calf serum and 5 supplemented calf serum and 0.5% pen-strep. The cells are harvested as described for D2 and D3 cells and used at a concentration of 0.15 mg protein/well in the [^3H]YM-09151-2 binding assay.
# T1 sequence (P21728 whole entry): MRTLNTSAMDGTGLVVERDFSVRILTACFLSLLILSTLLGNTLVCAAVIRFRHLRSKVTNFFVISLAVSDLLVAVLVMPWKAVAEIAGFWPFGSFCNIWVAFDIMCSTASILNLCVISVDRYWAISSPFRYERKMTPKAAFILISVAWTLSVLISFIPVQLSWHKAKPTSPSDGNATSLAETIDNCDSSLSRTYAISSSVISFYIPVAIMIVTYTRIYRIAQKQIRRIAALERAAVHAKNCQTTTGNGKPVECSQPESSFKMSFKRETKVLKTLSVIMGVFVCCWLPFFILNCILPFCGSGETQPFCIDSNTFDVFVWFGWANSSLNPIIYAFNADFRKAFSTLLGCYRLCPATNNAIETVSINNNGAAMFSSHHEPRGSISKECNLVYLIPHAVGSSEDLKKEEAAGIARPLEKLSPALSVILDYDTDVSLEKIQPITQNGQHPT
# Sequence of D3 receptor (P35462 whole entry): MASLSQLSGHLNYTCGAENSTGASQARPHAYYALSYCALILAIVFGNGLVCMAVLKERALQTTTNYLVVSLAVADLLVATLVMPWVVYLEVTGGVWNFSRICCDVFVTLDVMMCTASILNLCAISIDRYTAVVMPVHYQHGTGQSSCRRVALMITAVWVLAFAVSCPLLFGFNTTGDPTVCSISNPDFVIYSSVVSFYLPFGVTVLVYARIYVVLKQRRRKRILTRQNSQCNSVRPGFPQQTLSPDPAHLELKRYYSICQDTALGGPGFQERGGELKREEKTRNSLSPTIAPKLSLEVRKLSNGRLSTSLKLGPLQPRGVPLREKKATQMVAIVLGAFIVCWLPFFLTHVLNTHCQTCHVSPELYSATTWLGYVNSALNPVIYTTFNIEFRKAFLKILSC
# T2 sequence (P14416 whole entry): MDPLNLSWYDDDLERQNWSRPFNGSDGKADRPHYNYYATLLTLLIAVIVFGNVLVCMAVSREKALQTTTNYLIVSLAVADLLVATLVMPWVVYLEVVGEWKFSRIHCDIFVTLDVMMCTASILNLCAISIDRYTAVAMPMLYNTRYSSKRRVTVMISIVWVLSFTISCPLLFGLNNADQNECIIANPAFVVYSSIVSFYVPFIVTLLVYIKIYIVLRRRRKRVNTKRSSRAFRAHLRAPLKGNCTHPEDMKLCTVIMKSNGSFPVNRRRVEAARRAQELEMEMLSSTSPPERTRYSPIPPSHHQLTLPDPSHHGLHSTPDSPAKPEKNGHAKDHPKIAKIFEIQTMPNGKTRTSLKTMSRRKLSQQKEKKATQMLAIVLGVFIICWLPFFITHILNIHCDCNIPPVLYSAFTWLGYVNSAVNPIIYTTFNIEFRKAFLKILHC
# T4 sequence (P14416 whole entry): as above
smiles,measurement,setting,value
"N#CCCCN(CCCCN1CCN(c2ccccc2)CC1)C1CCc2ccc(O)cc2C1 (centres unmarked) [Compound 8, 7-Hydroxy-2-[N-butyonitrile-(N-(4-phenylpiperazin-1-yl)-butyl)amino]tetralin]",Ki,D1 receptor,3218 ± 7.77 nM
same,Ki,D2 receptor,89.8 ± 32.5 nM
same,Ki,5HT1A receptor,88.31 ± 0.4 nM
same,Ki,D2L receptor,622 ± 102 nM
same,Ki,D3 receptor,75.8 ± 6.29 nM
same,D2/D3,D3 receptor,1.18
same,Ki,D4 receptor,142 ± 6.5 nM
"O=C(NCCCCN(CCCCN1CCN(c2ccccc2)CC1)C1CCc2ccc(O)cc2C1)c1ccccc1 (centres unmarked) [Compound 10a, 7-Hydroxyl-2-[N-(4-benzoylaminobutyl)-(N-(4-phenylpiperazin-1-yl)-butyl)amino]tetralin]",Ki,D1 receptor,3730 ± 272 nM
same,Ki,D2 receptor,119 ± 1.45 nM
same,Ki,5HT1A receptor,171 ± 32.2 nM
same,Ki,D2L receptor,782 ± 42 nM
same,Ki,D3 receptor,313 ± 6.47 nM
same,D2/D3,D3 receptor,0.38
same,Ki,D4 receptor,137 ± 10.2 nM
"O=C(NCCN(CCCCN1CCN(c2ccccc2)CC1)C1CCc2ccc(O)cc2C1)c1ccccc1 (centres unmarked) [Compound 10b, 7-Hydroxy-2-[N-(2-benzoylamino)ethyl-(N-(4-phenylpiperazin-1-yl)-butyl)amino]tetralin]",Ki,D1 receptor,2950 ± 238 nM
same,Ki,D2 receptor,111 ± 32.2 nM
same,Ki,5HT1A receptor,164 ± 27.5 nM
same,Ki,D2L receptor,354 ± 2 nM
same,Ki,D3 receptor,84.6 ± 1.55 nM
same,D2/D3,D3 receptor,1.30
same,Ki,D4 receptor,35.6 ± 1.42 nM
"CCCN(CCCCN1CCN(c2ccccc2)CC1)C1CCc2ccc(O)cc2C1 (centres unmarked) [Compound 15b, 7-Hydroxyl-2-[N-propyl-(N-(4-phenylpiperazin-1-yl)-butyl)amino]tetralin]",Ki,D1 receptor,6120 ± 933 nM
same,Ki,D2 receptor,3.37 ± 0.78 nM
same,Ki,5HT1A receptor,18.5 ± 2.46 nM
same,Ki,D2L receptor,114 ± 8 nM
same,Ki,D3 receptor,3.47 ± 0.08 nM
same,D2/D3,D3 receptor,1
same,affinity at the D4 receptor,D4 receptor,good affinity
same,Ki,D4 receptor,25.7 ± 25.7 nM

# — patent US8227604B2, “Hybrid 2-aminotetralin and aryl-substituted piperazine compounds and their use in altering CNS activity” (Wayne State University, priority 2001, dated 2012)
